Assay results reported in the SangsterLogP compilation.

Assay: method code SF, from DOI: 10.1021/jm101405t, PMID: 21319751
Conditions: pH 7.4

logD	Compound
3.25	OCCc1ccc(OCc2ccccc2-c2ccccc2)cc1
1.94	OCCc1ccc(OCc2cccc(-c3ccccn3)c2)cc1
3.37	OCCc1ccc(OCc2cccc(-c3ccccc3)c2)cc1
1.96	OCCc1ccc(OCc2ccccc2)cc1
3.22	OCCc1ccc(OCc2cccc(-c3cccs3)c2)cc1
3.32	OCCc1ccc(OCc2ccccc2Oc2ccccc2)cc1
2.11	OCCc1ccc(OCc2cccc(-c3nccs3)c2)cc1
3.63	OCCc1ccc(-c2cccc(OCCc3ccccc3)c2)cc1
3.41	OCCc1ccc(OCc2ccc(-c3ccccc3)cc2)cc1
